From ChEMBL document CHEMBL3885861, “Open TG-GATES”

Species on record: Rattus norvegicus
Test: Open TG-GATES - Regimen: Daily Repeat
Assay type: toxicity, organism-based, Sprague-Dawley
Design: regimen Daily Repeat, gender Male, age 6 weeks
Conditions: in vivo, po, 1000 mg/kg, route gavage, dose level High; for APTT / Bas / Eos / Fbg / Hb / Ht / Lym / MCH / MCHC / MCV / Mono / Neu / PT / Plat / RBC / Ret / WBC: tissue Blood; for KIDNEY_L / KIDNEY_R / KIDNEY_TOTAL: tissue Kidney; for LIVER: tissue Liver; for A/G / ALP / ALT / AST / BUN / CRE / Ca / Cl / DBIL / GLC / IP / LDH / Na / PL / RALB / TBIL / TC / TG / TP / gamma-GTP: tissue Plasma

`NC(N)=Nc1nc(CSCCC(N)=NS(N)(=O)=O)cs1` [FAMOTIDINE] gave a TERMINAL_BW (72 h, time 3 day) of 226 g, an APTT (72 h, time 3 day) of 19.5 s and a Bas (72 h, time 3 day) of 0%. It also gave an Eos (72 h, time 3 day) of 1%, a Fbg (72 h, time 3 day) of 226.2 mg/dL and a Hb (72 h, time 3 day) of 13.2 g/dL. The Ht (72 h, time 3 day) was 36.9%, the Lym (72 h, time 3 day) was 79% and the MCH (72 h, time 3 day) was 21.9 pg. It also gave an MCHC (72 h, time 3 day) of 36%, an MCV (72 h, time 3 day) of 60.8 fL and a Mono (72 h, time 3 day) of 2.6%. For the same molecule, the Neu (72 h, time 3 day) was 14.4%, the PT (72 h, time 3 day) was 11.9 s and the Plat (72 h, time 3 day) was 126.7 x10_4/uL. It also gave an RBC (72 h, time 3 day) of 607 x10_4/ul, a Ret (72 h, time 3 day) of 4.4% and a WBC (72 h, time 3 day) of 84.8 x10_2/uL. It also gave a KIDNEY_L (72 h, time 3 day) of 1 g, a KIDNEY_R (72 h, time 3 day) of 1 g and a KIDNEY_TOTAL (72 h, time 3 day) of 2 g. For the same molecule, the LIVER (72 h, time 3 day) was 10.4 g, the A/G (72 h, time 3 day) was 1.5 and the ALP (72 h, time 3 day) was 917.2 IU/L. The ALT (72 h, time 3 day) was 32.8 IU/L, the AST (72 h, time 3 day) was 60.4 IU/L and the BUN (72 h, time 3 day) was 15.4 mg/dL. The CRE (72 h, time 3 day) was 0.4 mg/dL, the Ca (72 h, time 3 day) was 10.8 mg/dL and the Cl (72 h, time 3 day) was 104.2 meq/L. For the same molecule, the DBIL (72 h, time 3 day) was 0.088 mg/dL, the GLC (72 h, time 3 day) was 179.4 mg/dL and the IP (72 h, time 3 day) was 7.7 mg/dL. It also gave an LDH (72 h, time 3 day) of 185.8 IU/L, a Na (72 h, time 3 day) of 141.2 meq/L and a PL (72 h, time 3 day) of 137.8 mg/dL. The RALB (72 h, time 3 day) was 3.3 g/dL, the TBIL (72 h, time 3 day) was 0.1 mg/dL and the TC (72 h, time 3 day) was 77.6 mg/dL. The TG (72 h, time 3 day) was 79.6 mg/dL, the TP (72 h, time 3 day) was 5.5 g/dL and the gamma-GTP (72 h, time 3 day) was 1 IU/L. It also gave a TERMINAL_BW ([…], time 7 day) of 262.1 g, a TERMINAL_BW ([…], time 14 day) of 322.6 g and a TERMINAL_BW ([…], time 28 day) of 376.8 g. For the same molecule, the APTT ([…], time 7 day) was 21.5 s, the Bas ([…], time 7 day) was 0% and the Eos ([…], time 7 day) was 1.2%. For the same molecule, the Fbg ([…], time 7 day) was 223.4 mg/dL, the Hb ([…], time 7 day) was 13.6 g/dL and the Ht ([…], time 7 day) was 38.2%. The Lym ([…], time 7 day) was 75%, the MCH ([…], time 7 day) was 21.5 pg and the MCHC ([…], time 7 day) was 35.5%. It also gave an MCV ([…], time 7 day) of 60.3 fL, a Mono ([…], time 7 day) of 2.8% and a Neu ([…], time 7 day) of 19.6%. It also gave a PT ([…], time 7 day) of 12.1 s, a Plat ([…], time 7 day) of 122.6 x10_4/uL and an RBC ([…], time 7 day) of 634.4 x10_4/ul. It also gave a Ret ([…], time 7 day) of 5.5%, a WBC ([…], time 7 day) of 107.5 x10_2/uL and an APTT ([…], time 14 day) of 23.4 s. For the same molecule, the Bas ([…], time 14 day) was 0%, the Eos ([…], time 14 day) was 0.8% and the Fbg ([…], time 14 day) was 228 mg/dL. For the same molecule, the Hb ([…], time 14 day) was 13.9 g/dL, the Ht ([…], time 14 day) was 40.7% and the Lym ([…], time 14 day) was 76.8%. It also gave an MCH ([…], time 14 day) of 21.2 pg, an MCHC ([…], time 14 day) of 34.2% and an MCV ([…], time 14 day) of 62 fL. It also gave a Mono ([…], time 14 day) of 2.2%, a Neu ([…], time 14 day) of 18.6% and a PT ([…], time 14 day) of 12.5 s. The Plat ([…], time 14 day) was 117.7 x10_4/uL, the RBC ([…], time 14 day) was 656.2 x10_4/ul and the Ret ([…], time 14 day) was 4.8%. It also gave a WBC ([…], time 14 day) of 111.7 x10_2/uL, an APTT ([…], time 28 day) of 21.5 s and a Bas ([…], time 28 day) of 0%. The Eos ([…], time 28 day) was 1.2%, the Fbg ([…], time 28 day) was 222.2 mg/dL and the Hb ([…], time 28 day) was 15.7 g/dL. It also gave a Ht ([…], time 28 day) of 44.1%, a Lym ([…], time 28 day) of 84.8% and an MCH ([…], time 28 day) of 19.7 pg. For the same molecule, the MCHC ([…], time 28 day) was 35.6%, the MCV ([…], time 28 day) was 55.4 fL and the Mono ([…], time 28 day) was 1.4%. It also gave a Neu ([…], time 28 day) of 11%, a PT ([…], time 28 day) of 12.5 s and a Plat ([…], time 28 day) of 100.2 x10_4/uL. For the same molecule, the RBC ([…], time 28 day) was 796.6 x10_4/ul, the Ret ([…], time 28 day) was 1.9% and the WBC ([…], time 28 day) was 114.1 x10_2/uL. It also gave a KIDNEY_L ([…], time 7 day) of 1.2 g, a KIDNEY_R ([…], time 7 day) of 1.2 g and a KIDNEY_TOTAL ([…], time 7 day) of 2.4 g. It also gave a KIDNEY_L ([…], time 14 day) of 1.3 g, a KIDNEY_R ([…], time 14 day) of 1.3 g and a KIDNEY_TOTAL ([…], time 14 day) of 2.6 g. For the same molecule, the KIDNEY_L ([…], time 28 day) was 1.3 g, the KIDNEY_R ([…], time 28 day) was 1.3 g and the KIDNEY_TOTAL ([…], time 28 day) was 2.7 g. For the same molecule, the LIVER ([…], time 7 day) was 12.2 g, the LIVER ([…], time 14 day) was 14 g and the LIVER ([…], time 28 day) was 14.6 g. It also gave an A/G ([…], time 7 day) of 1.5, an ALP ([…], time 7 day) of 987.2 IU/L and an ALT ([…], time 7 day) of 36.6 IU/L. The AST ([…], time 7 day) was 69.8 IU/L, the BUN ([…], time 7 day) was 14.6 mg/dL and the CRE ([…], time 7 day) was 0.4 mg/dL. For the same molecule, the Ca ([…], time 7 day) was 10.8 mg/dL, the Cl ([…], time 7 day) was 103.6 meq/L and the DBIL ([…], time 7 day) was 0.088 mg/dL. It also gave a GLC ([…], time 7 day) of 183.6 mg/dL, an IP ([…], time 7 day) of 7.3 mg/dL and an LDH ([…], time 7 day) of 184 IU/L. The Na ([…], time 7 day) was 140.8 meq/L, the PL ([…], time 7 day) was 147.6 mg/dL and the RALB ([…], time 7 day) was 3.4 g/dL. It also gave a TBIL ([…], time 7 day) of 0.1 mg/dL, a TC ([…], time 7 day) of 79 mg/dL and a TG ([…], time 7 day) of 69.4 mg/dL. The TP ([…], time 7 day) was 5.6 g/dL, the gamma-GTP ([…], time 7 day) was 1 IU/L and the A/G ([…], time 14 day) was 1.5. For the same molecule, the ALP ([…], time 14 day) was 838 IU/L, the ALT ([…], time 14 day) was 36.6 IU/L and the AST ([…], time 14 day) was 64.6 IU/L. For the same molecule, the BUN ([…], time 14 day) was 16.4 mg/dL, the CRE ([…], time 14 day) was 0.5 mg/dL and the Ca ([…], time 14 day) was 10.8 mg/dL. For the same molecule, the Cl ([…], time 14 day) was 103.4 meq/L, the DBIL ([…], time 14 day) was 0.078 mg/dL and the GLC ([…], time 14 day) was 196.6 mg/dL. For the same molecule, the IP ([…], time 14 day) was 7.4 mg/dL, the LDH ([…], time 14 day) was 162 IU/L and the Na ([…], time 14 day) was 140.6 meq/L. The PL ([…], time 14 day) was 134.8 mg/dL, the RALB ([…], time 14 day) was 3.6 g/dL and the TBIL ([…], time 14 day) was 0.1 mg/dL. For the same molecule, the TC ([…], time 14 day) was 72.4 mg/dL, the TG ([…], time 14 day) was 66.8 mg/dL and the TP ([…], time 14 day) was 5.9 g/dL. For the same molecule, the gamma-GTP ([…], time 14 day) was 1.6 IU/L, the A/G ([…], time 28 day) was 1.3 and the ALP ([…], time 28 day) was 722.6 IU/L. It also gave an ALT ([…], time 28 day) of 36.2 IU/L, an AST ([…], time 28 day) of 62.4 IU/L and a BUN ([…], time 28 day) of 17.4 mg/dL. It also gave a CRE ([…], time 28 day) of 0.6 mg/dL, a Ca ([…], time 28 day) of 10.3 mg/dL and a Cl ([…], time 28 day) of 102.8 meq/L. For the same molecule, the DBIL ([…], time 28 day) was 0.076 mg/dL, the GLC ([…], time 28 day) was 220 mg/dL and the IP ([…], time 28 day) was 7 mg/dL. The LDH ([…], time 28 day) was 132.6 IU/L, the Na ([…], time 28 day) was 141.6 meq/L and the PL ([…], time 28 day) was 121.2 mg/dL. The RALB ([…], time 28 day) was 3.4 g/dL, the TBIL ([…], time 28 day) was 0.1 mg/dL and the TC ([…], time 28 day) was 62.4 mg/dL. It also gave a TG ([…], time 28 day) of 72.2 mg/dL, a TP ([…], time 28 day) of 6 g/dL and a gamma-GTP ([…], time 28 day) of 1.4 IU/L.
